Experimental data: US6667034B2, “METHODS FOR REGULATING THE SPECIFIC LINEAGES OF CELLS PRODUCED IN A HUMAN HEMATOPOIETIC CELL CULTURE, METHODS FOR ASSAYING THE EFFECT OF SUBSTANCES ON LINEAGE-SPECIFIC CELL PRODUCTION, AND CELL COMPOSITIONS PRODUCED BY THESE CULTURES” (The Regents of the University of Michigan, priority 1989, dated 2003)

What was measured:
Assay type in all cases: cell-based
Human bone marrow cells [1] = assay: Cumulative cell production by cell lineage in growth factor supplemented LTBMCs over the first 6.5 weeks (Example 5, Table 4); details: first 6.5 weeks of culture
From the text: Cells, hematopoietic progenitor cell assays, LTBMCs, and statistical analyses were as in Example 1.

Human bone marrow cells [2] = assay: Cumulative number of progenitor cells removed from rapidly perfused HGF supplemented LTBMCs (Example 5, Table 5)
Procedure: Hematopoietic progenitor cell assay: Nonadherent hematopoietic cells removed from culture were counted and plated at 1·10^5 cells/ml or fewer cells in methylcellulose. GM-CSF and Epo were added to the methylcellulose at 20 ng/ml and 2 U/ml, respectively. The cells were plated in 24 well plates at 0.25 ml/well and incubated at 37° C. for 14 days. The colonies were then counted under an inverted microscope and colonies greater than 50 cells were scored as GM-colony forming units (CFU-GM), erythroid burst-forming unit (BFU-E), or granulocyte erythroid megakaryocyte macrophage-colony forming unit (CFU-GEMM). Cells, hematopoietic progenitor cell assays, LTBMCs, and statistical analyses were as in Example 1.

Human bone marrow cells [3] = assay: Population balance: cumulative production of BFU-E removed and differentiated in HGF supplemented LTBMCs (Example 5, Table 6)
From the text: (§1) Production of Progenitor Cells from Stem Cells. Although the most primitive hematopoietic cells that can be directly assayed are the progenitor cells; CFU-GEMM, CFU-GM, and BFU-E, the presence and activity or earlier stem cells can be inferred by the continued production of progenitor cells. Thus, progenitor cell production is an indirect measure of primitive stem cell activity. One can assay stem cells, therefore, by analyzing the kinetics of the progenitor cell pool. The four process rates that determine the progenitor cell pool size are: V1: The rate of production of progenitor cells by more undifferentiated stem cells; V2: The rate of loss of progenitor cells through the act of sampling of nonadherent cells from the culture; V3: The rate of loss of progenitor cells by their differentiation to mature cells of a particular lineage; V4: The rate of death of progenitor cells. The initial number, C0, of each progenitor cell species can be determined by assay at culture initiation. The question that we wish to answer is; Are stem cells being stimulated to produced progenitor cells—i.e. is V1 greater than zero? Cell death, V4, cannot be assessed. V2 however, can be measured by assaying the nonadherent cells removed from culture, and V3 can be estimated from nonadherent cell production data. A conservative estimate of the rate of progenitor cell differentiation, V3, can be determined by assuming that each progenitor cell has 10 divisions remaining to become a terminally differentiated cell. Therefore, each progenitor cell is equivalent to 2^10 (1024) mature cells. From the total number of mature cells produced of a specific lineage, the number of progenitor cells (BFU-E and CFU-GM) that differentiated can be back-calculated. Therefore, if the removal and differentiation of progenitor cells (V2+V3) exceeds the numbers of progenitor cells inoculated, Co, then progenitor cells must have been produced, and V1 is greater than zero.

Human bone marrow cells [4] = assay: Population balance: cumulative production of CFU-GM removed and differentiated in HGF supplemented LTBMCs (Example 5, Table 7)
From the text: as §1

[5] = IL-3 1 ng/ml, GM-CSF 1 ng/ml, Epo 0.1 U/ml, IL-6 10 U/ml, G-CSF 0.1 ng/ml
[6] = cumulative, rapidly perfused LTBMCs
[7] = rapidly perfused HGF supplemented LTBMCs
[8] = back-calculated assuming each progenitor cell is equivalent to 2^10 (1024) mature cells

## GM-CSF: hematopoietic growth factor, 1 ng/ml (Amgen Biologicals, Cat. No. 13050)
Human bone marrow cells [1]; [5]
  Cumulative cell production: Early Granulocytes (EG): 2.7 ×10^6 cells per culture
  Cumulative cell production: Erythroid (E): 0.11 ×10^6 cells per culture
  Cumulative cell production: Late Granulocytes (LG): 6.8 ×10^6 cells per culture
  Cumulative cell production: Macrophages (Mo): 2.1 ×10^6 cells per culture
Human bone marrow cells [1]; late to early granulocytes
  ratio (LG/EG): 2.5
Human bone marrow cells [2]; [6]
  increase in the total number of CFU-GEMM removed from culture: 1.6 fold
Human bone marrow cells [2]; individual growth factor
  effect on total CFU-GM: only a slight increase
Human bone marrow cells [2]; [7]
  cumulative number of progenitor cells removed: BFU-E: 800
  cumulative number of progenitor cells removed: CFU-GEMM: 80
  cumulative number of progenitor cells removed: CFU-GM: 2200
Human bone marrow cells [3]; [8]
  Estimated number of BFU-E that differentiated (V3): 100
Human bone marrow cells [3]; [6]
  Number of erythroid cells removed (×10^4) (V3): 0.1 ×10^4
Human bone marrow cells [3]; every fourth biweekly sampling assayed, others by linear interpolation, inoculum 2900 BFU-E
  Number of BFU-E removed (plated) (V3): 800
Human bone marrow cells [3]; removed plus differentiated, inoculum 2900
  Total number of BFU-E (V3): 900
Human bone marrow cells [4]; [8]
  Estimated number of CFU-GM that differentiated (V3): 11,700
Human bone marrow cells [4]; [6]
  Number of GM cells removed (×10^4) (V3): 11.7 ×10^4
Human bone marrow cells [4]; every fourth biweekly sampling assayed, others by linear interpolation, inoculum 2500 CFU-GM
  Number of CFU-GM removed (plated) (V2): 2200
Human bone marrow cells [4]; removed plus differentiated
  Total number of CFU-GM (V3): 13,900
